Experimental data published in ChEMBL document CHEMBL5325426, “Structure-based discovery of potent USP28 inhibitors derived from Vismodegib” (Eur J Med Chem, 2023).
Active and inactive are the calls of the source. The rule behind the calls is not given here.

Tests used:
[1] = target: Ubiquitin carboxyl-terminal hydrolase 9X (Homo sapiens) (UniProt Q93008); assay: Inhibition of USP9X (1151 to 1970 residues) (unknown origin) expressed in Escherichia coli BL21 (DE3) using Ub-AMC as substrate at 5 uM by fluorescence based analysis
Ubiquitin carboxyl-terminal hydrolase 9X (Homo sapiens), sequence (Q93008 whole entry, the tested form may be a part): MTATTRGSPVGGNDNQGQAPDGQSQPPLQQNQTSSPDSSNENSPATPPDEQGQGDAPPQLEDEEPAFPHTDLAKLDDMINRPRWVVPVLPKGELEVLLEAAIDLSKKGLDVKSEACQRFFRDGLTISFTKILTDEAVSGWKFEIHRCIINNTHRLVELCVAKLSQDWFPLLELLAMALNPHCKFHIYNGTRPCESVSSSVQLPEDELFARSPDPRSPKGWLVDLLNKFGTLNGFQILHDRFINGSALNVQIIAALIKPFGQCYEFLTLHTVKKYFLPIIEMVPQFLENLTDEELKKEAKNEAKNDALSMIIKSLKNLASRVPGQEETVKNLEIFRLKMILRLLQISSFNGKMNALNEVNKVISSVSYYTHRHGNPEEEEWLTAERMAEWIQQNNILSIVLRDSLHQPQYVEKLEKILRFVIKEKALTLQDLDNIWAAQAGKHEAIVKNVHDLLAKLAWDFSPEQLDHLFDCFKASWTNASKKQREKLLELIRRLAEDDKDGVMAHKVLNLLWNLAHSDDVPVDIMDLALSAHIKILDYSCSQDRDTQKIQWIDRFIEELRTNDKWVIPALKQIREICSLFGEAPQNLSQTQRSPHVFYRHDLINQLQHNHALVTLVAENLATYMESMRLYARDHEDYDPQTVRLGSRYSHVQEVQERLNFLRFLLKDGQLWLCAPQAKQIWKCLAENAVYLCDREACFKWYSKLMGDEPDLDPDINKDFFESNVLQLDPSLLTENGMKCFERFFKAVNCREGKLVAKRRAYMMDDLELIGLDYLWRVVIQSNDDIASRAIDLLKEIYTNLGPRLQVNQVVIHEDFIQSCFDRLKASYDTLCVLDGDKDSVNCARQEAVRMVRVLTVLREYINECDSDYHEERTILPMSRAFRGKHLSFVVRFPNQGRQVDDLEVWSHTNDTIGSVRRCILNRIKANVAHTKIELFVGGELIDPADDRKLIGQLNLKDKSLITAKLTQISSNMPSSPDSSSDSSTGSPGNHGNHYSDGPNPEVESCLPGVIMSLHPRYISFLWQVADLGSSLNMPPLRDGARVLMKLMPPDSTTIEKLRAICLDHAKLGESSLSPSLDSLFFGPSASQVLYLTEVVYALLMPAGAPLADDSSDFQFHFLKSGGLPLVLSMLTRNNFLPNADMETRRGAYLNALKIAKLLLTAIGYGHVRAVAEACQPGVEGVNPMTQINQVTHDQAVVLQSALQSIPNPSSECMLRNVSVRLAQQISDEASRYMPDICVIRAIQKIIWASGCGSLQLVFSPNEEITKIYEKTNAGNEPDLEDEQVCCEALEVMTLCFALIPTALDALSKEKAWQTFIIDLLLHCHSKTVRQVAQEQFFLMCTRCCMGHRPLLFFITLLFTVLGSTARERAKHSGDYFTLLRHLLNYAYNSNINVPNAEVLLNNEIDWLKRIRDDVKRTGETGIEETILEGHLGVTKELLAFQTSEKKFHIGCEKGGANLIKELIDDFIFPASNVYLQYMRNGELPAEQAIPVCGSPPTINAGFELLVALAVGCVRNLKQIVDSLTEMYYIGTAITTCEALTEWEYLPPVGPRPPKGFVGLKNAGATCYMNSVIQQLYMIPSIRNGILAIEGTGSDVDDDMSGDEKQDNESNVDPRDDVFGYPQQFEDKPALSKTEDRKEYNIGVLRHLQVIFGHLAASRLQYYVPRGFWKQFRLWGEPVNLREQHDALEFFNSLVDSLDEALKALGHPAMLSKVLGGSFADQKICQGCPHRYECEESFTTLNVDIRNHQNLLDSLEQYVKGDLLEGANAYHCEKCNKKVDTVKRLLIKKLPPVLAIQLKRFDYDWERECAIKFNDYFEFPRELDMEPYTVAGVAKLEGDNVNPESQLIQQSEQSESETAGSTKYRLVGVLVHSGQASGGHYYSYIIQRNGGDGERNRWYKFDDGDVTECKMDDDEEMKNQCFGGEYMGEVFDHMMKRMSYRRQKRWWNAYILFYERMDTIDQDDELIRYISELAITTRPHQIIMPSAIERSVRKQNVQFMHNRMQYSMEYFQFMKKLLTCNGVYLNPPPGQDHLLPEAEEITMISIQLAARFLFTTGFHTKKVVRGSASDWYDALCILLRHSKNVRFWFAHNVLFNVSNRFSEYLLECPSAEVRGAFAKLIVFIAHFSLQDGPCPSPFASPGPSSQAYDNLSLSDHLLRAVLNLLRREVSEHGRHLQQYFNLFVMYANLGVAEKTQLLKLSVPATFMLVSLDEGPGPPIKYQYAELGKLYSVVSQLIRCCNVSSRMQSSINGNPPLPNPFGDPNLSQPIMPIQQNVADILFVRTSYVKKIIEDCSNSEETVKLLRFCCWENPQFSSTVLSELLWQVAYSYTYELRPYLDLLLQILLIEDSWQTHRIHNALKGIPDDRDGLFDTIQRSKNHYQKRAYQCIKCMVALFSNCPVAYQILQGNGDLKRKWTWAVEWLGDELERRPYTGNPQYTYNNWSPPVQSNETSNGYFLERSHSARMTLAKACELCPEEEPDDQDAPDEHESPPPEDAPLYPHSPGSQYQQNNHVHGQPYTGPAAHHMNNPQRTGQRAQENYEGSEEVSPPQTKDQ

[2] = target: T1, Ubiquitin carboxyl-terminal hydrolase isozyme L3 (Homo sapiens) (UniProt P15374); assay: Inhibition of UCHL3 (unknown origin) expressed in Escherichia coli BL21 (DE3) using Ub-AMC as substrate at 5 uM by fluorescence based analysis
T1 sequence (whole entry): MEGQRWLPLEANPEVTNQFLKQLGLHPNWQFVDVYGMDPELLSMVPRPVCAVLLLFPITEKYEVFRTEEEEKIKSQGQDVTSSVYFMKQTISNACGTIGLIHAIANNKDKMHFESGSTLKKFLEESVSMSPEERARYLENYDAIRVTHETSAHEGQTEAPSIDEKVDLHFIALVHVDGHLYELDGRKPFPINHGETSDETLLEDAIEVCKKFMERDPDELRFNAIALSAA

[3] = target: T2, Ubiquitin carboxyl-terminal hydrolase isozyme L5 (Homo sapiens) (UniProt Q9Y5K5); assay: Inhibition of UCHL5 (1 to 228 residues) (unknown origin) expressed in Escherichia coli BL21 (DE3) using Ub-AMC as substrate at 5 uM by fluorescence based analysis
T2 sequence (whole entry): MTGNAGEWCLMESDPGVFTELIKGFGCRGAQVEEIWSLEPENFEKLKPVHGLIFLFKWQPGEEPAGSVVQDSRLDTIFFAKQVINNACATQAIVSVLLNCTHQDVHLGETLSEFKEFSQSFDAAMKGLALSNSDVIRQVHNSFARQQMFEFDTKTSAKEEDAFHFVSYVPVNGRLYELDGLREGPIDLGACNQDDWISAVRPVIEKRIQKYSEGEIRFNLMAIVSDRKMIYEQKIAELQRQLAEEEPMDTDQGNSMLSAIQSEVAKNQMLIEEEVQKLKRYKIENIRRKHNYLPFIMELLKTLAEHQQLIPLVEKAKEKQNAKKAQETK

[4] = target: T3, Ubiquitin carboxyl-terminal hydrolase 25 (Homo sapiens) (UniProt Q9UHP3); assay: Inhibition of USP25 (unknown origin) expressed in Escherichia coli BL21 (DE3) using Ub-AMC as substrate at 5 uM by fluorescence based analysis
T3 sequence (whole entry): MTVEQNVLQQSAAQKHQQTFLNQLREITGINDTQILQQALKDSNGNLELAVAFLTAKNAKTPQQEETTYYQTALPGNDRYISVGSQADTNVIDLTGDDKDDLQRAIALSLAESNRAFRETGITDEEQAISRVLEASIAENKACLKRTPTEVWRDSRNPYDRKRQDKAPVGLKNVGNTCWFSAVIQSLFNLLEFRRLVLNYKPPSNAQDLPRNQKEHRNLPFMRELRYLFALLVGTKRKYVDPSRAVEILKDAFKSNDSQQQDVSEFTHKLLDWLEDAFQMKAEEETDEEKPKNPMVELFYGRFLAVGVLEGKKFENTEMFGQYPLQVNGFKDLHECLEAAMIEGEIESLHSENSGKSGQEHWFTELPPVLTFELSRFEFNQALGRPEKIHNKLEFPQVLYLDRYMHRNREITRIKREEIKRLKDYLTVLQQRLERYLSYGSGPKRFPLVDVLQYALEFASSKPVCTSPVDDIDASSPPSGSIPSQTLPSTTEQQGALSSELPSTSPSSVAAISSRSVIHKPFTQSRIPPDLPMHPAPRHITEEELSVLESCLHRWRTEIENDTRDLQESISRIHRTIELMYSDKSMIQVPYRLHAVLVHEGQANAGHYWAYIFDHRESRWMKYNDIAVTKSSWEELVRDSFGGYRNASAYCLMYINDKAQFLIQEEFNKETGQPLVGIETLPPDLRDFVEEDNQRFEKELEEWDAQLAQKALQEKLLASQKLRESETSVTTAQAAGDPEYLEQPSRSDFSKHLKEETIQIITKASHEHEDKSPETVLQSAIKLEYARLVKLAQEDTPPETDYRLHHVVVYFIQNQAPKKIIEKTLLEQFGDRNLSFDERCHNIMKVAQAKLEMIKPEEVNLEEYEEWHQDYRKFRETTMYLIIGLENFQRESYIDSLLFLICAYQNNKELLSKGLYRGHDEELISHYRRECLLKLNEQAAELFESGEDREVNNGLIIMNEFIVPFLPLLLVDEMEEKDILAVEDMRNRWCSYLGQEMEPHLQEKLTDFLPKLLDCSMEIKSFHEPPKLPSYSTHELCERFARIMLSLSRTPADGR

[5] = target: T3, Ubiquitin carboxyl-terminal hydrolase 25 (Homo sapiens); assay: Inhibition of USP25 in human HCT-116 cells assessed as downregulation of Tankyrase 1/2 protein level; assay type: cell-based
[6] = tested on: LS174T; assay: Antiproliferative activity against human LS174T cells assessed as cell growth inhibition at 10 to 30 uM incubated for 3 days in presence of Regorafenib by SRB assay; assay type: functional, cell-based; details: dose 10-30 µM, time 3.0 day
[7] = tested on: LS174T; assay: Antiproliferative activity against human LS174T cells assessed as effect on Bcl-2 protein level at 20 to 60 uM incubated for 1 day by western blotting analysis; assay type: functional, cell-based; details: dose 20-60 µM

Row | SMILES | inhibition [1] | inhibition [2] | inhibition [3] | inhibition [4] | inhibition [5] | Activity [6] | Activity [7]
1 | CS(=O)(=O)c1ccc(C(=O)Nc2ccc(Cl)c(-c3ccc4c(c3)CNC4)c2)c(Cl)c1 | Active | Active | Active | Active | Active | Active | inactive
2 | CS(=O)(=O)c1ccc(C(=O)Nc2ccc(Cl)c(-c3ccc4c(c3)CCNC4)c2)c(Cl)c1 | Active | Active | Active | Active | Active | Active | inactive
3 | CS(=O)(=O)c1ccc(C(=O)Nc2ccc(Cl)c(-c3ccc(C4(N)CC4)cc3)c2)c(Cl)c1 | Active | Active | Active | Active | Active | Active | inactive
